Values after ≈ are worked out from the molar mass of the structure shown.
Columns and labels:
[1] = test system: Staphylococcus aureus; experiment: Antibacterial activity against Staphylococcus aureus ATCC 6538 after 24 hrs by microdilution method; type: functional; conditions: ATCC 6538, 24 h
[2] = test system: Bacillus cereus; experiment: Antibacterial activity against Bacillus cereus clinical isolate after 24 hrs by microdilution method; type: functional
[3] = test system: Micrococcus flavus; experiment: Antibacterial activity against Micrococcus flavus ATCC 10240 after 24 hrs by microdilution method; type: functional; conditions: ATCC 10240, 24 h
[4] = test system: Listeria monocytogenes; experiment: Antibacterial activity against Listeria monocytogenes NCTC 7973 after 24 hrs by microdilution method; type: functional; conditions: NCTC 7973, 24 h
[5] = test system: Pseudomonas aeruginosa; experiment: Antibacterial activity against Pseudomonas aeruginosa ATCC 27853 after 24 hrs by microdilution method; type: functional; conditions: ATCC 27853, 24 h
[6] = test system: Salmonella typhimurium; experiment: Antibacterial activity against Salmonella Typhimurium ATCC 13311 after 24 hrs by microdilution method; type: functional, Salmonella enterica subsp. enterica serovar Typhimurium; conditions: Salmonella enterica, ATCC 13311, 24 h
[7] = test system: Escherichia coli; experiment: Antibacterial activity against Escherichia coli ATCC 35210 after 24 hrs by microdilution method; type: functional; conditions: ATCC 35210, 24 h
[8] = test system: Enterococcus faecalis; experiment: Antibacterial activity against Enterococcus faecalis isolate obtained from human after 24 hrs by microdilution method; type: functional
[9] = test system: Staphylococcus aureus; experiment: Bactericidal activity against Staphylococcus aureus ATCC 6538 after 24 hrs; type: functional; conditions: ATCC 6538, 24 h
[10] = test system: Bacillus cereus; experiment: Bactericidal activity against Bacillus cereus clinical isolate after 24 hrs; type: functional
[11] = test system: Micrococcus flavus; experiment: Bactericidal activity against Micrococcus flavus ATCC 10240 after 24 hrs; type: functional; conditions: ATCC 10240, 24 h
[12] = test system: Listeria monocytogenes; experiment: Bactericidal activity against Listeria monocytogenes NCTC 7973 after 24 hrs; type: functional; conditions: NCTC 7973, 24 h
[13] = test system: Pseudomonas aeruginosa; experiment: Bactericidal activity against Pseudomonas aeruginosa ATCC 27853 after 24 hrs; type: functional; conditions: ATCC 27853, 24 h
[14] = test system: Salmonella typhimurium; experiment: Bactericidal activity against Salmonella Typhimurium ATCC 13311 after 24 hrs; type: functional, Salmonella enterica subsp. enterica serovar Typhimurium; conditions: Salmonella enterica, ATCC 13311, 24 h
[15] = test system: Escherichia coli; experiment: Bactericidal activity against Escherichia coli ATCC 35210 after 24 hrs; type: functional; conditions: ATCC 35210, 24 h
[16] = test system: Enterococcus faecalis; experiment: Bactericidal activity against Enterococcus faecalis isolate obtained from human after 24 hrs; type: functional
[17] = test system: Aspergillus ochraceus; experiment: Antifungal activity against Aspergillus ochraceus ATCC 12066 after 72 hrs by serial dilution method; type: functional; conditions: ATCC 12066, 72 h
[18] = test system: Aspergillus versicolor; experiment: Antifungal activity against Aspergillus versicolor ATCC 11730 after 72 hrs by serial dilution method; type: functional; conditions: ATCC 11730, 72 h
[19] = test system: Aspergillus niger; experiment: Antifungal activity against Aspergillus niger ATCC 6275 after 72 hrs by serial dilution method; type: functional; conditions: ATCC 6275, 72 h
[20] = test system: Aspergillus fumigatus; experiment: Antifungal activity against Aspergillus fumigatus plant isolate after 72 hrs by serial dilution method; type: functional
[21] = test system: Trichoderma viride; experiment: Antifungal activity against Trichoderma viride IAM 5061 after 72 hrs by serial dilution method; type: functional; conditions: IAM 5061, 72 h
[22] = test system: Penicillium ochrochloron; experiment: Antifungal activity against Penicillium ochrochloron ATCC 9112 after 72 hrs by serial dilution method; type: functional; conditions: ATCC 9112, 72 h
[23] = test system: Talaromyces funiculosus; experiment: Antifungal activity against Penicillium funiculosum ATCC 36839 after 72 hrs by serial dilution method; type: functional; conditions: ATCC 36839, 72 h
[24] = Antifungal activity against Fusarium sporotrichioides IMT 496 after 72 hrs by serial dilution method; type: functional
[25] = test system: Aspergillus ochraceus; experiment: Fungicidal activity against Aspergillus ochraceus ATCC 12066 after 72 hrs; type: functional; conditions: ATCC 12066, 72 h
[26] = test system: Aspergillus versicolor; experiment: Fungicidal activity against Aspergillus versicolor ATCC 11730 after 72 hrs; type: functional; conditions: ATCC 11730, 72 h
[27] = test system: Aspergillus niger; experiment: Fungicidal activity against Aspergillus niger ATCC 6275 after 72 hrs; type: functional; conditions: ATCC 6275, 72 h
[28] = test system: Aspergillus fumigatus; experiment: Fungicidal activity against Aspergillus fumigatus plant isolate after 72 hrs; type: functional
[29] = test system: Trichoderma viride; experiment: Fungicidal activity against Trichoderma viride IAM 5061 after 72 hrs; type: functional; conditions: IAM 5061, 72 h
[30] = test system: Penicillium ochrochloron; experiment: Fungicidal activity against Penicillium ochrochloron ATCC 9112 after 72 hrs; type: functional; conditions: ATCC 9112, 72 h
[31] = test system: Talaromyces funiculosus; experiment: Fungicidal activity against Penicillium funiculosum ATCC 36839 after 72 hrs; type: functional; conditions: ATCC 36839, 72 h
[32] = test system: Fusarium sporotrichioides; experiment: Fungicidal activity against Fusarium sporotrichioides IMT 496 after 72 hrs; type: functional; conditions: IMT 496, 72 h

Row | Compound | MIC [1] | MIC [2] | MIC [3] | MIC [4] | MIC [17] | MIC [18] | MIC [19] | MIC [20] | MIC [21] | MIC [22] | MIC [23] | MIC (10'-2 umol/ml) [24] | MFC [25] | MFC [26] | MFC [27] | MFC [28] | MFC [29] | MFC [30] | MFC [31] | MFC [32] | also measured
1 | CNc1nc(C)c(C(=O)/C=C/c2ccccc2OC)s1 | 347 µM (≈ 100 µg/mL) | 347 µM (≈ 100 µg/mL) | 260 µM (≈ 75.1 µg/mL) | 347 µM (≈ 100 µg/mL) | 170 µM (≈ 49 µg/mL) | 340 µM (≈ 98 µg/mL) | 340 µM (≈ 98 µg/mL) | 340 µM (≈ 98 µg/mL) | 170 µM (≈ 49 µg/mL) | 340 µM (≈ 98 µg/mL) | 340 µM (≈ 98 µg/mL) | 17 | 340 µM (≈ 98 µg/mL) | 520 µM (≈ 150 µg/mL) | 870 µM (≈ 251 µg/mL) | 520 µM (≈ 150 µg/mL) | 340 µM (≈ 98 µg/mL) | 520 µM (≈ 150 µg/mL) | 690 µM (≈ 199 µg/mL) | 340 µM (≈ 98 µg/mL) | MIC [5]: 295 µM (≈ 85.1 µg/mL); MIC [6]: 347 µM (≈ 100 µg/mL); MIC [7]: 260 µM (≈ 75.1 µg/mL); MIC [8]: 260 µM (≈ 75.1 µg/mL); MBC [9]: 347 µM (≈ 100 µg/mL); MBC [10]: 347 µM (≈ 100 µg/mL); MBC [11]: 295 µM (≈ 85.1 µg/mL); MBC [12]: 521 µM (≈ 150 µg/mL); MBC [13]: 347 µM (≈ 100 µg/mL); MBC [14]: 521 µM (≈ 150 µg/mL); MBC [15]: 347 µM (≈ 100 µg/mL); MBC [16]: 347 µM (≈ 100 µg/mL)
2 | c1ccc(-c2ccc(C(c3ccccc3)n3ccnc3)cc2)cc1 (centres undefined) [BIFONAZOLE] |  |  |  |  | 403 µM (≈ 125 µg/mL) | 25.1 µM (≈ 7.79 µg/mL) | 50.3 µM (≈ 15.6 µg/mL) | 3.2 µM (≈ 0.993 µg/mL) | 806 µM (≈ 250 µg/mL) | 403 µM (≈ 125 µg/mL) | 1610 µM (≈ 500 µg/mL) | 8.06 | 806 µM (≈ 250 µg/mL) | 1610 µM (≈ 500 µg/mL) | 201 µM (≈ 62.5 µg/mL) | 61.2 µM (≈ 19 µg/mL) | 1610 µM (≈ 500 µg/mL) | 1610 µM (≈ 500 µg/mL) | 2420 µM (≈ 750 µg/mL) | 806 µM (≈ 250 µg/mL) | 
3 | CC1(C)S[C@@H]2[C@H](NC(=O)[C@H](N)c3ccccc3)C(=O)N2[C@H]1C(=O)O [AMPICILLIN] | 248 µM (≈ 86.6 µg/mL) | 248 µM (≈ 86.6 µg/mL) | 248 µM (≈ 86.6 µg/mL) | 248 µM (≈ 86.6 µg/mL) |  |  |  |  |  |  |  |  |  |  |  |  |  |  |  |  | MIC [5]: 248 µM (≈ 86.6 µg/mL); MIC [6]: 248 µM (≈ 86.6 µg/mL); MIC [7]: 248 µM (≈ 86.6 µg/mL); MIC [8]: 248 µM (≈ 86.6 µg/mL); MBC [9]: 372 µM (≈ 130 µg/mL); MBC [10]: 372 µM (≈ 130 µg/mL); MBC [11]: 372 µM (≈ 130 µg/mL); MBC [12]: 372 µM (≈ 130 µg/mL); MBC [13]: 372 µM (≈ 130 µg/mL); MBC [14]: 372 µM (≈ 130 µg/mL); MBC [15]: 372 µM (≈ 130 µg/mL); MBC [16]: 372 µM (≈ 130 µg/mL)
4 | CNc1nc(C)c(C(=O)/C=C/c2ccccc2)s1 | 388 µM (≈ 100 µg/mL) | 388 µM (≈ 100 µg/mL) | 194 µM (≈ 50 µg/mL) | 388 µM (≈ 100 µg/mL) | 388 µM (≈ 100 µg/mL) | 194 µM (≈ 50.1 µg/mL) | 388 µM (≈ 100 µg/mL) | 388 µM (≈ 100 µg/mL) | 194 µM (≈ 50.1 µg/mL) | 194 µM (≈ 50.1 µg/mL) | 388 µM (≈ 100 µg/mL) | 38.8 | 581 µM (≈ 150 µg/mL) | 581 µM (≈ 150 µg/mL) | 775 µM (≈ 200 µg/mL) | 581 µM (≈ 150 µg/mL) | 388 µM (≈ 100 µg/mL) | 775 µM (≈ 200 µg/mL) | 581 µM (≈ 150 µg/mL) | 388 µM (≈ 100 µg/mL) | MIC [5]: 291 µM (≈ 75.1 µg/mL); MIC [6]: 329 µM (≈ 85.1 µg/mL); MIC [7]: 329 µM (≈ 85.1 µg/mL); MIC [8]: 194 µM (≈ 50 µg/mL); MBC [9]: 581 µM (≈ 150 µg/mL); MBC [10]: 581 µM (≈ 150 µg/mL); MBC [11]: 388 µM (≈ 100 µg/mL); MBC [12]: 581 µM (≈ 150 µg/mL); MBC [13]: 388 µM (≈ 100 µg/mL); MBC [14]: 388 µM (≈ 100 µg/mL); MBC [15]: 388 µM (≈ 100 µg/mL); MBC [16]: 388 µM (≈ 100 µg/mL)
5 | CC(=O)N1CCN(c2ccc(OCC3COC(Cn4ccnc4)(c4ccc(Cl)cc4Cl)O3)cc2)CC1 (centres undefined) [KETOCONAZOLE] |  |  |  |  | 47 µM (≈ 25 µg/mL) | 18.8 µM (≈ 9.99 µg/mL) | 282 µM (≈ 150 µg/mL) | 47 µM (≈ 25 µg/mL) | 94.2 µM (≈ 50.1 µg/mL) | 18.8 µM (≈ 9.99 µg/mL) | 9.4 µM (≈ 5 µg/mL) | 9.42 | 94.2 µM (≈ 50.1 µg/mL) | 47 µM (≈ 25 µg/mL) | 470 µM (≈ 250 µg/mL) | 94.2 µM (≈ 50.1 µg/mL) | 188 µM (≈ 99.9 µg/mL) | 47 µM (≈ 25 µg/mL) | 18.8 µM (≈ 9.99 µg/mL) | 188 µM (≈ 99.9 µg/mL) | 
6 | CNc1nc(C)c(C(=O)/C=C/c2ccc([N+](=O)[O-])cc2)s1 | 330 µM (≈ 100 µg/mL) | 330 µM (≈ 100 µg/mL) | 330 µM (≈ 100 µg/mL) | 330 µM (≈ 100 µg/mL) | 250 µM (≈ 75.8 µg/mL) | 330 µM (≈ 100 µg/mL) | 330 µM (≈ 100 µg/mL) | 330 µM (≈ 100 µg/mL) | 165 µM (≈ 50.1 µg/mL) | 330 µM (≈ 100 µg/mL) | 330 µM (≈ 100 µg/mL) | 16.5 | 330 µM (≈ 100 µg/mL) | 496 µM (≈ 150 µg/mL) | 825 µM (≈ 250 µg/mL) | 496 µM (≈ 150 µg/mL) | 330 µM (≈ 100 µg/mL) | 496 µM (≈ 150 µg/mL) | 496 µM (≈ 150 µg/mL) | 660 µM (≈ 200 µg/mL) | MIC [5]: 330 µM (≈ 100 µg/mL); MIC [6]: 248 µM (≈ 75.1 µg/mL); MIC [7]: 248 µM (≈ 75.1 µg/mL); MIC [8]: 165 µM (≈ 50.1 µg/mL); MBC [9]: 495 µM (≈ 150 µg/mL); MBC [10]: 495 µM (≈ 150 µg/mL); MBC [11]: 495 µM (≈ 150 µg/mL); MBC [12]: 495 µM (≈ 150 µg/mL); MBC [13]: 495 µM (≈ 150 µg/mL); MBC [14]: 330 µM (≈ 100 µg/mL); MBC [15]: 330 µM (≈ 100 µg/mL); MBC [16]: 330 µM (≈ 100 µg/mL)

From ChEMBL document CHEMBL1782000, “Thiazole-based chalcones as potent antimicrobial agents. Synthesis and biological evaluation” (2011)
